In patent publication US20250179103A1, “6-OXODECAHYDROPYRROLO[1,2-A][1,5]DIAZOCINE AND 6-OXODECAHYDRO-4H-PYRROLO[2,1-D][1,5]THIAZOCINE DERIVATIVES AS STAT3 AND STAT6 MODULATORS FOR THE TREATMENT OF CANCER AND INFLAMMATORY CONDITIONS” (Recludix Pharma, Inc., priority 2022, published 2025):

How the values were obtained:
[1] = biological target: T1, Recombinant STAT3 protein (STAT3(G127-I722)) (Homo sapiens, UniProt P40763); assay: STAT3 Fluorescence Polarization (FP) Assay; type: binding; details: STAT3(G127-I722) 25 nM, probe 5-FAM-GpYLPQTV-NH2 2 nM, 45-minute incubation
T1 construct: Recombinant STAT3 protein (STAT3(G127-I722))
T1 sequence (P40763 127-722): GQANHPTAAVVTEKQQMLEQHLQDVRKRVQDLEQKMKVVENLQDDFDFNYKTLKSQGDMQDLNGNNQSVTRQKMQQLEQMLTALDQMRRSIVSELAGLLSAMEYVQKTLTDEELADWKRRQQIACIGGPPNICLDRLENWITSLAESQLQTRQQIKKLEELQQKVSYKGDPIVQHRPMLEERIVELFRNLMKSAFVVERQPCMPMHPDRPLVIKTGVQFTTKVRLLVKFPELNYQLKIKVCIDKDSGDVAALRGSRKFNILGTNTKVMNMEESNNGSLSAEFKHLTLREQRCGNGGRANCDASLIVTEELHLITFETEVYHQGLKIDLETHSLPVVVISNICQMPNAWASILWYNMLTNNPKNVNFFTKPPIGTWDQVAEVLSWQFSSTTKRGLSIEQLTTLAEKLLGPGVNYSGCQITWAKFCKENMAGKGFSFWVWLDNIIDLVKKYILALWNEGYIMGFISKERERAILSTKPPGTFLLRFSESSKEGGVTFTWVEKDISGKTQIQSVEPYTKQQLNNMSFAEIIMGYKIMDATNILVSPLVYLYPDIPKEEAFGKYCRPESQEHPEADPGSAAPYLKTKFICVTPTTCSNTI
Method in brief: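 Fluorescence polarization after a 45-min room-temperature incubation measured compound displacement of a 2 nM fluorescein-labelled phosphotyrosine peptide (5-FAM-GpYLPQTV-NH2) from 25 nM recombinant STAT3(G127-I722). Buffer was 10 mM HEPES pH 7.4 with 1% DMSO final. IC50s were fitted by nonlinear regression of mP against log concentration.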

[2] = biological target: T2, Recombinant STAT6 protein (STAT6(W123-T658)) (Homo sapiens, UniProt P42226); assay: STAT6 Fluorescence Polarization (FP) Assay; type: binding; details: STAT6(W123-T658) 250 nM, probe 5-FAM-ApYKPFQDLI-NH2 2 nM, 45-minute incubation
T2 construct: Recombinant STAT6 protein (STAT6(W123-T658))
T2 sequence (P42226 123-658): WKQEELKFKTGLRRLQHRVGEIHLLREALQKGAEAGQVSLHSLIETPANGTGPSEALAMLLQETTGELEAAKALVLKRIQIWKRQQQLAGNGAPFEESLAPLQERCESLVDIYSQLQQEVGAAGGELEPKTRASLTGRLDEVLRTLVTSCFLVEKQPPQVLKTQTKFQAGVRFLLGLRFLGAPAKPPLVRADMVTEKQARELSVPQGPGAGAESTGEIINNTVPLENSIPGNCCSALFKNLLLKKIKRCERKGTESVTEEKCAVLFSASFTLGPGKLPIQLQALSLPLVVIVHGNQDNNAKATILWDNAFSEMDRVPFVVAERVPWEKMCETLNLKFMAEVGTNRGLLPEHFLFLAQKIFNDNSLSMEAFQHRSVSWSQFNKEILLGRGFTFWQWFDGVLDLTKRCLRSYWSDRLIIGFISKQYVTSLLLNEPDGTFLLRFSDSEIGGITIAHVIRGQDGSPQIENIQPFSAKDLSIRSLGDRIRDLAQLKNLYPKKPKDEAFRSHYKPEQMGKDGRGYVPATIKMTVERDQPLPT
Method in brief: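 Displacement of a fluorescent phosphotyrosine peptide (5-FAM-ApYKPFQDLI-NH2, 2 nM) from STAT6(W123-T658) (250 nM), 1% DMSO, pH 7.4 HEPES buffer. After 45 min at room temperature, polarization (mP) was plotted versus log compound concentration and fitted by nonlinear regression to give IC50.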

Compound	IC50 [1]	IC50 [2]
O=C(N[C@H]1CN(C(=O)CCc2ccccc2)CC[C@H]2CC[C@@H](C(=O)Nc3ccc(-c4ccccc4)cc3)N2C1=O)c1cc2cc(C(F)(F)P(=O)(O)O)ccc2[nH]1 [Compound 215, ((2-(((5S,8S,10aR)-8-([1,1′-biphenyl]-4-ylcarbamoyl)-6-oxo-3-(3-phenylpropanoyl)decahydropyrrolo[1,2a][1,5]diazocin-5-yl)carbamoyl)-1H-indol-5-yl)difluoromethyl)phosphonic acid]	100 to 1000 nM	≤ 300 nM
CC(=O)N1CC[C@H]2CC[C@@H](C(=O)N3CC(c4cc(F)cc(F)c4)[C@@H](C#N)C3)N2C(=O)[C@@H](NC(=O)c2cc3cc(C(F)(F)P(=O)(O)O)ccc3s2)C1 (relative stereo) [Compound 142, ((2-(((5S,8S,10aR)-3-acetyl-8-((rel-trans)-3-cyano-4-(3,5-difluorophenyl)pyrrolidine-1-carbonyl)-6-oxodecahydropyrrolo[1,2-a][1,5]diazocin-5-yl)carbamoyl)benzo[b]thiophen-5-yl)difluoromethyl)phosphonic acid]	1000 to 10000 nM	≤ 300 nM
CCN1CC[C@H](NC(=O)c2ccc3ccc(C(F)(F)P(=O)(O)O)cc3c2)C(=O)N2[C@H](CC[C@H]2C(=O)N2C[C@H](c3ccccc3)[C@@H](C#N)C2)C1 (relative stereo) [Compound 227, ((7-(((5S,8S,10aR)-8-((rel-trans)-3-cyano-4-phenylpyrrolidine-1-carbonyl)-2-ethyl-6-oxodecahydropyrrolo[1,2-a][1,4]diazocin-5-yl)carbamoyl)naphthalen-2-yl)difluoromethyl)phosphonic acid]	1000 to 10000 nM	≤ 300 nM
CC(=O)N1CC[C@H]2CC[C@@H](C(=O)N(C)c3ccccc3)N2C(=O)[C@@H](NC(=O)c2cc3cc(C(F)P(=O)(O)O)ccc3s2)C1 (stereo partly drawn) [Compound 22, ((2-(((5S,8S,10aR)-3-acetyl-8-(methyl(phenyl)carbamoyl)-6-oxodecahydropyrrolo[1,2-a][1,5]diazocin-5-yl)carbamoyl)benzo[b]thiophen-5-yl)fluoromethyl)phosphonic acid]	> 10000 nM	300 to 3000 nM
CC(=O)N1CC[C@H]2CC[C@@H](C(=O)Nc3ccc(-c4ccccc4)cc3)N2C(=O)[C@@H](NC(=O)/C=C/c2ccc(C(F)(F)P(=O)(O)O)cc2)C1 [Compound 121, ((4-((E)-3-(((5S,8S,10aR)-8-([1,1′-biphenyl]-4-ylcarbamoyl)-3-acetyl-6-oxodecahydropyrrolo[1,2-a][1,5]diazocin-5-yl)amino)-3-oxoprop-1-en-1-yl)phenyl)difluoromethyl)phosphonic acid]	> 10000 nM	3000 to 30000 nM
N#C[C@@H]1CN(C(=O)[C@@H]2CC[C@@H]3CCN(CC(F)F)C[C@H](NC(=O)c4cc5cc(C(F)P(=O)(O)O)ccc5s4)C(=O)N32)C[C@H]1c1ccccc1 (stereo partly drawn) [Compound 395, ((2-(((5S,8S,10aR)-8-((3S,4R)-3-cyano-4-phenyl-pyrrolidine-1-carbonyl)-3-(2,2-difluoroethyl)-6-oxodecahydropyrrolo [1,2-a][1,5]diazocin-5-yl)carbamoyl)benzo[b]thiophen-5-yl)fluoromethyl) phosphonic acid]	1000 to 10000 nM	≤ 300 nM
Cc1ccc2[nH]nc(C(=O)N3CC[C@H]4CC[C@@H](C(=O)N(C)C)N4C(=O)[C@@H](NC(=O)c4cc5cc(CP(=O)(O)O)ccc5s4)C3)c2c1 [Compound 230, ((2-(((5S,8S,10aR)-8-(dimethylcarbamoyl)-3-(5-methyl-1H-indazole-3-carbonyl)-6-oxodecahydropyrrolo[1,2-a][1,5]diazocin-5-yl)carbamoyl)benzo[b]thiophen-5-yl)methyl)phosphonic acid]	> 10000 nM	3000 to 30000 nM
Cc1ccc2onc(C(=O)N3CC[C@H]4CC[C@@H](C(=O)N5C[C@H](c6cc[nH]c(=O)c6)CC56CC6)N4C(=O)[C@@H](NC(=O)c4ccc5ccc(C(F)(F)P(=O)(O)O)cc5c4)C3)c2c1 [Compound 381, (difluoro(7-(((5S,8S, 10aR)-3-(5-methylbenzo[d]isoxazole-3-carbonyl)-6-oxo-8-((S)-6-(2-oxo-1,2-dihydropyridin-4-yl)-4-azaspiro[2.4]heptane-4-carbonyl)decahydropyrrolo [1,2-a][1,5]diazocin-5-yl)carbamoyl)naphthalen-2-yl)methyl)phosphonic acid]	1000 to 10000 nM	≤ 300 nM
CC(=O)N1CC(NC(=O)[C@@H]2CC[C@@H]3CCN(C(C)=O)C[C@H](NC(=O)c4cc5cc(C(F)(F)P(=O)(O)O)ccc5[nH]4)C(=O)N32)C1 [Compound 24, ((2-(((5S,8S,10aR)-3-acetyl-8-((1-acetylazetidin-3-yl)carbamoyl)-6-oxodecahydropyrrolo[1,2-a][1,5]diazocin-5-yl)carbamoyl)-1H-indol-5-yl)difluoromethyl)phosphonic acid]	100 to 1000 nM	300 to 3000 nM
CC(=O)N1CC[C@H]2CC[C@@H](C(=O)N3CCCC[C@H]3Cc3ccccc3)N2C(=O)[C@@H](NC(=O)c2cc3cc(C(F)(F)P(=O)(O)O)ccc3[nH]2)C1 [Compound 106, ((2-(((5S,8S,10aR)-3-acetyl-8-((S)-2-benzylpiperidine-1-carbonyl)-6-oxodecahydropyrrolo[1,2-a][1,5]diazocin-5-yl)carbamoyl)-1H-indol-5-yl)difluoromethyl)phosphonic acid]	1000 to 10000 nM	300 to 3000 nM
COC(=O)[C@@H]1CN(C(=O)[C@@H]2CC[C@@H]3CCN(CC(F)F)C[C@H](NC(=O)c4cc5cc(C(F)(F)P(=O)(O)O)ccc5s4)C(=O)N32)C[C@H]1c1ccccc1 (single isomer, unassigned) [Compound 247, ((2-(((5S,8S,10aR)-3-(2,2-difluoroethyl)-8-((3S,4R or 3R,4S)-3-(methoxycarbonyl)-4-phenylpyrrolidine-1-carbonyl)-6-oxodecahydropyrrolo[1,2-a][1,5]diazocin-5-yl)carbamoyl)benzo[b]thiophen-5-yl)difluoromethyl)phosphonic acid]	100 to 1000 nM	≤ 300 nM

Continued, values first:

IC50 [1]	IC50 [2]	Compound
1000 to 10000 nM	300 to 3000 nM	CC(=O)N1CC[C@H]2CC[C@@H](C(=O)Nc3ccc4ccnnc4c3)N2C(=O)[C@@H](NC(=O)c2cc3cc(C(F)(F)P(=O)(O)O)ccc3s2)C1 [Compound 189, ((2-(((5S,8S,10aR)-3-acetyl-8-(cinnolin-7-ylcarbamoyl)-6-oxodecahydropyrrolo[1,2-a][1,5]diazocin-5-yl)carbamoyl)benzo[b]thiophen-5-yl)difluoromethyl)phosphonic acid]
100 to 1000 nM	300 to 3000 nM	CC(=O)N1CC[C@H]2CC[C@@H](C(=O)Nc3ccc(-c4ccccc4)cc3)N2C(=O)[C@@H](NC(=O)c2cc3cc(C(F)(F)P(=O)(O)O)ccc3[nH]2)C1 [Compound 58, ((2-(((5S,8S,10aR)-8-([1,1′-biphenyl]-4-ylcarbamoyl)-3-acetyl-6-oxodecahydropyrrolo[1,2-a][1,5]diazocin-5-yl)carbamoyl)-1H-indol-5-yl)difluoromethyl)phosphonic acid]
1000 to 10000 nM	300 to 3000 nM	CC(=O)N1CC[C@H]2CC[C@@H](C(=O)N(C)c3ccccc3)N2C(=O)[C@@H](NC(=O)c2cc3cc(C(F)(F)P(=O)(O)O)ccc3s2)C1 [Compound 109, ((2-(((5S,8S,10aR)-3-acetyl-8-(methyl(phenyl)carbamoyl)-6-oxodecahydropyrrolo[1,2-a][1,5]diazocin-5-yl)carbamoyl)benzo[b]thiophen-5-yl)difluoromethyl)phosphonic acid]
1000 to 10000 nM	300 to 3000 nM	CC(=O)N1CC[C@H]2CC[C@@H](C(=O)Nc3ccc(S(C)(=O)=O)cc3)N2C(=O)[C@@H](NC(=O)c2cc3cc(C(F)(F)P(=O)(O)O)ccc3s2)C1 [Compound 70, ((2-(((5S,8S,10aR)-3-acetyl-8-((4-(methylsulfonyl)phenyl)carbamoyl)-6-oxodecahydropyrrolo[1,2-a][1,5]diazocin-5-yl)carbamoyl)benzo[b]thiophen-5-yl)difluoromethyl)phosphonic acid]
1000 to 10000 nM	300 to 3000 nM	CC(=O)N1CC[C@H]2CC[C@@H](C(=O)N(C)CC(C)(C)C#N)N2C(=O)[C@@H](NC(=O)c2cc3cc(C(F)(F)P(=O)(O)O)ccc3s2)C1 [Compound 92, ((2-(((5S,8S,10aR)-3-acetyl-8-((2-cyano-2-methylpropyl)(methyl)carbamoyl)-6-oxodecahydropyrrolo[1,2-a][1,5]diazocin-5-yl)carbamoyl)benzo[b]thiophen-5-yl)difluoromethyl)phosphonic acid]
